Data published in patent US11731959B2, “Troxacitabine synthesis and crystal form thereof” (BEIJING HEBABIZ BIOTECHNOLOGY CO., LTD., priority 2015, dated 2023).

Assays:
Type in all cases: physicochemical
[1] = Hygroscopicity study by DVS method at 25° C.; conditions: for humidity at which the crystal form begins to absorb water / water absorbed at 90% RH: 25° C.; for crystal form after water absorption / DVS (XRPD): XRPD before and after DVS
Procedure: The hygroscopicity of crystal forms A, C and E is evaluated by DVS method at 25° C. Crystal form A begins to absorb water at 70% RH and absorbs 8.4% of water at 90% RH. […] Crystal form E begins to absorb water at 80% RH and absorbs 8.5% of water at 90% RH. […] Therefore, crystal form C is selected for further stability study.

[2] = Crystal form conversion on storage or heating (XRPD/DSC)
Source text: The innovator of this invention set up 103 pleiomorphic screening tests using 7 methods, and obtained 7 crystal forms therefrom, i.e., crystal forms A, B, C, E, F, J and K. Among those, crystal forms B, F and J are instable at common temperature while crystal form K is a crystal form of troxacitabine acetic acid solvate or acetate, crystal form C is a crystal form of troxacitabine monohydrate, and crystal forms A and E are the crystal forms of troxacitabine itself (anhydrous substance).
Transfer 201.3 mg of the final product obtained in the embodiment 1 to a 5-ml flasket, add 0.8 mL of water to dissolve and volatilize in a fume hood with the top open for 3 days. Transfer into a vacuum drying oven (<−100 KPa) and volatilize with the top open for 1 day. The resulted crystal form is called crystal form C and its superficial characteristics are obtained using x-ray powder diffraction (XRPD), thermogravimetric analysis (TGA) and differential scanning calorimetry (DSC).
Transfer 199.8 mg of the final product obtained in the embodiment 1 to a 5-ml flasket, add 4.0 mL of methanol:acetone=1:9 (v/v), and mix the suspension for 3 days. Centrifugate for 3 min at a rate of 10000 rpm, precipitate and vacuum dry for 1 h. The resulted crystal form is called crystal form E and its superficial characteristics are obtained using x-ray powder diffraction (XRPD) and differential scanning calorimetry (DSC). […] (the first endothermic peak at a starting temperature of 68.3° C. is the dehydration peak of crystal form C), the second endothermic peak disappears from DSC spectrum when heated to 160° C., that is, the second endothermic peak at a starting temperature of 146.0° C. is the crystal form conversion peak of crystal form A from crystal form E.)

[3] = Stability study of crystal form C (XRPD, TGA, DSC, HPLC)
Procedure: Crystal form C is evaluated for its physical-chemical stability when placed at 80° C. for 24 h (with the top closed) as well as at 40° C./75% RH and 25° C./60% RH for 1 week (with the top open). The chemical and physical stability of the samples are tested by XRPD, TGA, DSC and HPLC.

[4] = 1 week, 25° C./60% RH, top open
[5] = 1 week, 40° C./75% RH, top open

| SMILES | humidity at which the crystal form begins to absorb water ([1]; DVS) [% RH] | water absorbed at 90% RH ([1]; DVS) [%] | crystal form after water absorption / DVS (XRPD) [1] | crystal form change on heating ([2]; heated to 160° C., XRPD) | crystal form change on storage ([2]; stored for 3 months in air, XRPD) | crystal form change on storage ([2]; 1-month storage) | hygroscopicity ([1]; DVS, 25° C./80% RH) [%] | relative stability among crystal forms ([1]; room temperature and room humidity) | TGA weight loss (heated to 100° C.) ([3]; 0 h, NA) | HPLC purity ([3]; 0 h, NA) [area %] | TGA weight loss (heated to 100° C.) [3, 4] | HPLC purity [3, 4] [area %] | TGA weight loss (heated to 100° C.) [3, 5] | HPLC purity [3, 5] [area %] | physical stability ([3]; 40° C./75% RH and 25° C./60% RH, 1 week) | chemical stability ([3]; 80° C. 24 h, 40° C./75% RH and 25° C./60% RH 1 week, chemical impurity analysis) | TGA weight loss (heated to 100° C.) ([3]; 24 h, 80° C., top closed) | HPLC purity ([3]; 24 h, 80° C., top closed) [area %] | crystal form change on heating ([2]; heated to 100° C., XRPD) |
| --- | --- | --- | --- | --- | --- | --- | --- | --- | --- | --- | --- | --- | --- | --- | --- | --- | --- | --- | --- |
| Nc1ccn(C2CO[C@H](CO)O2)c(=O)n1 (some centres unmarked) [crystal form E] | 80 | 8.5 | begins to convert into crystal form C | conversion of crystal form E into crystal form A | has a tendency to convert into crystal form C | – | – | – | – | – | – | – | – | – | – | – | – | – | – |
| Nc1ccn(C2CO[C@H](CO)O2)c(=O)n1 (some centres unmarked) [crystal form A] | 70 | 8.4 | begins to convert into crystal form C | – | – | partially convert into crystal form C | – | – | – | – | – | – | – | – | – | – | – | – | – |
| Nc1ccn(C2CO[C@H](CO)O2)c(=O)n1 (some centres unmarked) [crystal form C] | – | – | remain the same in crystal form | – | – | – | 0.14 | most stable crystal form | 8.0 | 100.0 | 8.2 | 100.0 | 7.9 | 100.0 | physically stable | chemically stable | 0.4 | 100.0 | conversion of crystal form C into crystal form A |
